The record followed here is ChEMBL document CHEMBL5728840, “Vasopressin receptor antagonists and products and methods related thereto” (2021).

A word on the IC50: it is the concentration at which inhibition is half-maximal.

In the assay the target is Vasopressin V1a receptor (Homo sapiens, UniProt P37288). Kind of assay: Vasopressin V1A Receptor Antagonist Assay: The purpose of this assay was to determine the inhibitory effect of synthesized compounds on the Vasopressin V1a receptor. The assay as performed in Chinese Hamster Ovary (CHO) cells expressing the human Arginine Vasopressin Receptor 1a (AVPR1a). Arginine Vasopressin (AVP) evokes an increase in intracellular calcium in CHO-AVPR1a cells which is measured in a fluorescence assay on the […] using calcium sensitive dyes. Test compounds were assessed for their ability to affect the magnitude of the response to AVP, with antagonists showing a concentration-dependent reduction in the AVP-mediated fluorescence. Compounds were tested in duplicate in a 10-point, 1:3 dilution series starting at a nominal concentration of 3 μM in the assay.CHO-AVPR1a cells were maintained in routine culture in T175 Flasks at 37° C., 5% CO2. The growth medium consists of Ham's F12 media supplemented with 10% v/v fetal bovine serum, 1× non-essential amino acids, and 0.4 mg/ml Geneticin G418. It is filed as cell-based. In general terms: Calcium assays in cells follow changes in intracellular calcium, usually with a dye or a luminescent sensor.
Sequence of Vasopressin V1a receptor (P37288 whole entry): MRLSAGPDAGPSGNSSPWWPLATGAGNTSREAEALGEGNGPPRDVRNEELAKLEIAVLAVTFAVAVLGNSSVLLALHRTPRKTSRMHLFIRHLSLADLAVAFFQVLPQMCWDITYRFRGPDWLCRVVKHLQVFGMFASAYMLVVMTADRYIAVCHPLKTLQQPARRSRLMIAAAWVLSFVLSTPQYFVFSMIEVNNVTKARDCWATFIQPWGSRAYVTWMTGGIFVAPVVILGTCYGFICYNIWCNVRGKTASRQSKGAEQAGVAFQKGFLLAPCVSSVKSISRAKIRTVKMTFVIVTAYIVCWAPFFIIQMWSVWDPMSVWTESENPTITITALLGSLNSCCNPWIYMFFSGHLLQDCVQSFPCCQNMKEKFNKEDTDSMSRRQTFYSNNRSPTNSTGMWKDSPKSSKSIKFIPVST

`CN(C)C(=O)N1Cc2cc(Cl)ccc2-n2c(nnc2C2CC3(C2)CN(c2ccc(F)cn2)C3)C1`: the IC50 is below 100 nM.

Consider `O=C(C1CC1)N1CC2(CC(c3nnc4n3-c3ccc(Cl)cc3CN(C3CC3)C4)C2)C1`, for which the 50% inhibitory concentration (IC50) is below 100 nM.
